# Experimental data taken from US20240207263A1, “SELECTIVE MODULATORS OF ATAXIA TELA[…] (ATM) KINASE AND USES THEREOF” (priority 2021, published 2024).
# Molecular target: ATM (Homo sapiens (Human), UniProt Q13315)
# Assay: biochemical
# Assay type: biochemical
# Details: read-out: ATM IC50
# From the text: Assay a): ATM Biochemical Potency
# Data was collected by Caliper.
# Sequence of ATM (Q13315 whole entry, looked up): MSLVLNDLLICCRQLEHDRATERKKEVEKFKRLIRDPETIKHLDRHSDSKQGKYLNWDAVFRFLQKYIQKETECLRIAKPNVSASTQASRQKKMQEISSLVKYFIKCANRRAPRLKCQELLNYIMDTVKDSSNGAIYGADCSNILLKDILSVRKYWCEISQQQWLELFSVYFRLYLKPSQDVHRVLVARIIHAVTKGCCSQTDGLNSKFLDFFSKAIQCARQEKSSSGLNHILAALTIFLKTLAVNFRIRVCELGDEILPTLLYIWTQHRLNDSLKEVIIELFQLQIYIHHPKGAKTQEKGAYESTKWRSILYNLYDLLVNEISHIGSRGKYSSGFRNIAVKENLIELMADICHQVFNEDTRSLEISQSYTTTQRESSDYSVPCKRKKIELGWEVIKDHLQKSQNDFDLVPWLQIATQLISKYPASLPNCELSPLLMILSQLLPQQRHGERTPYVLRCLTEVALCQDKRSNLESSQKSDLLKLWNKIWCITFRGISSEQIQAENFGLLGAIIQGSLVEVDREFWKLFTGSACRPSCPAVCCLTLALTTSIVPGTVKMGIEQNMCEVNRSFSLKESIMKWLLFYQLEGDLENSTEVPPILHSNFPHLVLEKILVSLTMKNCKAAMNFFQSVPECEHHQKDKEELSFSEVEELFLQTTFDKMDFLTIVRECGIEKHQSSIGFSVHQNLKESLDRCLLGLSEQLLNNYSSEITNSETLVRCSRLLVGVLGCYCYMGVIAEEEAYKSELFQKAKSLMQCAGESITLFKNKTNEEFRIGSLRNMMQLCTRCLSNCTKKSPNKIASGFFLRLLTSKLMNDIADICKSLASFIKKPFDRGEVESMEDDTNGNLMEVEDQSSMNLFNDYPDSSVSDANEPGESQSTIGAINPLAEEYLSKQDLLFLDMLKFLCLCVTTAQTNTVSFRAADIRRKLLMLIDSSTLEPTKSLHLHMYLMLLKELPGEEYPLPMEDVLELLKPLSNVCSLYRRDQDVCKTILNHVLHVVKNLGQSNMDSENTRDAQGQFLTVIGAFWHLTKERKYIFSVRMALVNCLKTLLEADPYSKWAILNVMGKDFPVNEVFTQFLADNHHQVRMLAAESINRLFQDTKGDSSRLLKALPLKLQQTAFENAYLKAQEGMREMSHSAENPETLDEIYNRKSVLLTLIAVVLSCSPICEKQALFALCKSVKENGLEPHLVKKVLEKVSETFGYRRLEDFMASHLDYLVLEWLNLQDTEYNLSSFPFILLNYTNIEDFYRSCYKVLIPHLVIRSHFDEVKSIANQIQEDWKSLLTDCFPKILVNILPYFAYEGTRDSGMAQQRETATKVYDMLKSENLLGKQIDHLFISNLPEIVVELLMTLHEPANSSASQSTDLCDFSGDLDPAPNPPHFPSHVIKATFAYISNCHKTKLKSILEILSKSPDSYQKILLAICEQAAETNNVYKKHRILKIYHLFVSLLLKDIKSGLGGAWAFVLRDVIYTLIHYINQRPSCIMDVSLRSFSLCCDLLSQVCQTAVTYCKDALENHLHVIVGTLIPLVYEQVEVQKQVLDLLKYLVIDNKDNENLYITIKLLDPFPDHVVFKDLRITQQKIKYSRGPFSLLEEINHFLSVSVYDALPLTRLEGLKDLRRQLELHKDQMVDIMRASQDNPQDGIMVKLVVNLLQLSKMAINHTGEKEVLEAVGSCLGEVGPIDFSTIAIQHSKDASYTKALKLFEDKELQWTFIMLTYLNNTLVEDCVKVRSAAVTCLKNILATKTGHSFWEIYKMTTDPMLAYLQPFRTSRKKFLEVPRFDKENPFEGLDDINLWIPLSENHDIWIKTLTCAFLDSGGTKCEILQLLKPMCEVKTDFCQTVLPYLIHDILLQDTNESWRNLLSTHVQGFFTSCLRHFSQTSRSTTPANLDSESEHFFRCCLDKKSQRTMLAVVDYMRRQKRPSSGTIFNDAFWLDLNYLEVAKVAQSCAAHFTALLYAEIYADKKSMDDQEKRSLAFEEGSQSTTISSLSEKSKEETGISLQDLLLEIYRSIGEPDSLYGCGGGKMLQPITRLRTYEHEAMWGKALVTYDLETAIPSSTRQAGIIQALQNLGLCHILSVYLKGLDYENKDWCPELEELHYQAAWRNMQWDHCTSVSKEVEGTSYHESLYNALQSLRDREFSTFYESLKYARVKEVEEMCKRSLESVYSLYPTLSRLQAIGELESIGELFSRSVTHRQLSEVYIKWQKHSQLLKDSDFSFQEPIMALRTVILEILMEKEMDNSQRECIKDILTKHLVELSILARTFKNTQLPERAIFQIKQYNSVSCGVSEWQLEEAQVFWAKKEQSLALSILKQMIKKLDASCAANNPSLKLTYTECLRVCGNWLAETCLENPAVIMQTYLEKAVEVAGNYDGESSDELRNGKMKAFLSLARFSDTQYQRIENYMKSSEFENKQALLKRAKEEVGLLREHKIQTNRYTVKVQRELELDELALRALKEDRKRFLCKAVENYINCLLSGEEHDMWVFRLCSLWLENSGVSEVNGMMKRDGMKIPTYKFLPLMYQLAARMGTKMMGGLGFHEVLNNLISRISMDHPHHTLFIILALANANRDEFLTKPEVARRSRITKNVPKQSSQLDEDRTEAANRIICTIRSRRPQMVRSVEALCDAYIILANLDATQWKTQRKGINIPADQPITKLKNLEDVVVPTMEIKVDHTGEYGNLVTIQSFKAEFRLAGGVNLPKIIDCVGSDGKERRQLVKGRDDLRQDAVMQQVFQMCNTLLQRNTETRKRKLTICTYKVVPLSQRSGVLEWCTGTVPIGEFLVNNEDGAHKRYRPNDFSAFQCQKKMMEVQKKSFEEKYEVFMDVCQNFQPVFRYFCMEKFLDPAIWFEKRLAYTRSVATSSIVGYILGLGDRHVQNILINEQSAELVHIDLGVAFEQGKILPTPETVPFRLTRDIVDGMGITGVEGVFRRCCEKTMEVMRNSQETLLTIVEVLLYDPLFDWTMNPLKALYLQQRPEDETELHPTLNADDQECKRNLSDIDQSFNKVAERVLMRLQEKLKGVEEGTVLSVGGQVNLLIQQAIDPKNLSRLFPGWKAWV
row,Compound,IC50 [nM]
1,"CO[C@H]1C[C@H](n2c(=O)n(C)c3nnc4ccc(-c5ccc(COCCN6CCC(F)CC6)nc5)cc4c32)C1 [Example 168, 8-(6-((2-(4-fluoropiperidin-1-yl)ethoxy)methyl)pyridin-3-yl)-1-(trans-3-methoxycyclobutyl)-3-methyl-1H-imidazo[4,5-c]cinnolin-2(3H)-one]",48
2,"CC(C)n1c(=O)n(C)c2nnc3ccc(-c4ccc([C@H](C)OCCN5CCC(C)(C)CC5)nc4)cc3c21 [Example 72, (S)-8-(6-(1-(2-(4,4-dimethylpiperidin-1-yl)ethoxy)ethyl)pyridin-3-yl)-1-isopropyl-3-methyl-1H-imidazo[4,5-c]cinnolin-2(3H)-one]",50
3,"CC(C)n1c(=O)n(C)c2nnc3ccc(-c4ccc(COCCN5CCC(F)(F)CC5)nc4)cc3c21 [Example 30, 8-(6-((2-(4,4-difluoropiperidin-1-yl)ethoxy)methyl)pyridin-3-yl)-1-isopropyl-3-methyl-1H-imidazo[4,5-c]cinnolin-2(3H)-one]",62
4,"CC(C)n1c(=O)n(C)c2nnc3ccc(-c4ccc(COCCN5CCC6(CCC6)CC5)nc4)cc3c21 [Example 49, 8-(6-((2-(7-azaspiro[3.5]nonan-7-yl)ethoxy)methyl)pyridin-3-yl)-1-isopropyl-3-methyl-1H-imidazo[4,5-c]cinnolin-2(3H)-one]",2.8
5,C[C@@H](OCCN1CCC(F)CC1)c1ccc(-c2ccc3nnc4c(c3c2)n(C2CCOCC2)c(=O)n4C)cn1 [Example 108],3.7
6,"C[C@@H](OCCN1CCC(C)(C#N)C1)c1ccc(-c2ccc3nnc4c(c3c2)n(C2CCOCC2)c(=O)n4C)cn1 (stereo partly drawn) [Example 130, 3-methyl-1-(2-((R)-1-(5-(3-methyl-2-oxo-1-(tetrahydro-2H-pyran-4-yl)-2,3-dihydro-1H-imidazo[4.5-c]cinnolin-8-yl)pyridin-2-yl)ethoxy)ethyl) pyrrolidine-3-carbonitrile]",26
7,"COC[C@@H]1CCN(CCO[C@H](C)c2ccc(-c3ccc4nnc5c(c4c3)n(C(C)C)c(=O)n5C)cn2)C1 [Example 85, 1-isopropyl-8-(6-((R)-1-(2-((R)-3-(methoxymethyl)pyrrolidin-1-yl)ethoxy)ethyl)pyridin-3-yl)-3-methyl-1H-imidazo[4,5-c]cinnolin-2(3H)-one]",3.4
8,"CC(C)n1c(=O)n(C)c2nnc3cc(F)c(-c4ccc([C@@H](C)OCCN5CC6CC6C5)nc4)cc3c21 (stereo partly drawn) [Example 143, 8-(6-((1R)-1-(2-(3-azabicyclo[3.1.0]hexan-3-yl)ethoxy)ethyl)pyridin-3-yl)-7-fluoro-1-isopropyl-3-methyl-1H-imidazo[4,5-c]cinnolin-2(3H)-one]",11
9,"CC(C)n1c(=O)n(C)c2nnc3ccc(-c4ccc(COCC5CCCN(C)C5)nc4)cc3c21 (stereo not shown) [Example 19, 1-isopropyl-3-methyl-8-(6-(((1-methylpiperidin-3-yl)methoxy)methyl)pyridin-3-yl)-1H-imidazo[4,5-c]cinnolin-2(3H)-one]",99
10,"CC(C)C(OCCN1CCCC1)c1ccc(-c2ccc3nnc4c(c3c2)n(C(C)C)c(=O)n4C)cn1 (stereo not shown) [Example 221, 1-isopropyl-3-methyl-8-(6-(2-methyl-1-(2-(pyrrolidin-1-yl)ethoxy)propyl)pyridin-3-yl)-1H-imidazo[4,5-c]cinnolin-2(3H)-one]",156
11,"CC(C)n1c(=O)n(C)c2nnc3ccc(-c4ccc([C@@H](C)OCCN5CCC(C)(C)C5)nc4)cc3c21 [Example 61, (R)-8-(6-(1-(2-(3,3-dimethylpyrrolidin-1-yl)ethoxy)ethyl)pyridin-3-yl)-1-isopropyl-3-methyl-1H-imidazo[4,5-c]cinnolin-2(3H)-one]",3.4
12,"CC(C)n1c(=O)n(C)c2nnc3ccc(-c4ccc(C(C)(C)OCCN5CC6CC6C5)nc4)cc3c21 (stereo not shown) [Example 217, 8-(6-(2-(2-(3-azabicyclo[3.1.0]hexan-3-yl)ethoxy)propan-2-yl)pyridin-3-yl)-1-isopropyl-3-methyl-1H-imidazo[4,5-c]cinnolin-2(3H)-one]",72
13,"CC(C)n1c(=O)n(C)c2nnc3ccc(-c4ccc(COCCN5CCCCC5)nc4)cc3c21 [Example 3, 1-isopropyl-3-methyl-8-(6-((2-(piperidin-1-yl)ethoxy)methyl)pyridin-3-yl)-1H-imidazo[4,5-c]cinnolin-2(3H)-one]",36
14,"C[C@@H](OCCN1CCC2(CC1)CC2)c1ccc(-c2cc3c(cc2F)nnc2c3n(C3CCOCC3)c(=O)n2C)cn1 [Example 154, (R)-8-(6-(1-(2-(6-azaspiro[2.5]octan-6-yl)ethoxy)ethyl)pyridin-3-yl)-7-fluoro-3-methyl-1-(tetrahydro-2H-pyran-4-yl)-1H-imidazo[4,5-c]cinnolin-2(3H)-one]",3.6
15,"CC(C)n1c(=O)n(C)c2nnc3ccc(-c4ccc(COCCN5CCCC(F)C5)nc4)cc3c21 (stereo not shown) [Example 38, 8-(6-((2-(3-fluoropiperidin-1-yl)ethoxy)methyl)pyridin-3-yl)-1-isopropyl-3-methyl-1H-imidazo[4,5-c]cinnolin-2(3H)-one]",57
16,"CC(C)n1c(=O)n(C)c2nnc3ccc(-c4ccc(COCCN5CC6C(C5)C6(F)F)nc4)cc3c21 (stereo not shown) [Example 48, 8-(6-((2-(6,6-difluoro-3-azabicyclo[3.1.0]hexan-3-yl)ethoxy)methyl)pyridin-3-yl)-1-isopropyl-3-methyl-1H-imidazo[4,5-c]cinnolin-2(3H)-one]",17
17,"C[C@@H](OCCN1CCC2(CCC2)CC1)c1ccc(-c2cc3c(cc2F)nnc2c3n(C3CCOCC3)c(=O)n2C)cn1 [Example 156, (R)-8-(6-(1-(2-(7-azaspiro[3.5]nonan-7-yl)ethoxy)ethyl)pyridin-3-yl)-7-fluoro-3-methyl-1-(tetrahydro-2H-pyran-4-yl)-1H-imidazo[4,5-c]cinnolin-2(3H)-one]",6
18,"CO[C@@H]1CCN(CCO[C@@H](C)c2ccc(-c3ccc4nnc5c(c4c3)n(C(C)C)c(=O)n5C)cn2)C1 [Example 64, 1-isopropyl-8-(6-((S)-1-(2-((R)-3-methoxypyrrolidin-1-yl)ethoxy)ethyl)pyridin-3-yl)-3-methyl-1H-imidazo[4,5-c]cinnolin-2(3H)-one]",19
19,"CC(C)n1c(=O)n(C)c2nnc3ccc(-c4ccc(COC5CCN(C)C5)nc4)cc3c21 (stereo not shown) [Example 11, 1-isopropyl-3-methyl-8-(6-(((1-methylpyrrolidin-3-yl)oxy)methyl)pyridin-3-yl)-1H-imidazo[4,5-c]cinnolin-2(3H)-one]",123
20,"CC(C)n1c(=O)n(C)c2nnc3ccc(-c4ccc(COC5(CN6CC7CC7C6)CC5)nc4)cc3c21 (stereo not shown) [Example 23, 8-(6-((1-(3-azabicyclo[3.1.0]hexan-3-ylmethyl)cyclopropoxy)methyl)pyridin-3-yl)-1-isopropyl-3-methyl-1H-imidazo[4,5-c]cinnolin-2(3H)-one]",420
21,"C[C@@H]1CCN(CCO[C@H](C)c2ccc(-c3ccc4nnc5c(c4c3)n(C3CCOCC3)c(=O)n5C)cn2)C1 [Example 123, 3-methyl-8-(6-((R)-1-(2-((R)-3-methylpyrrolidin-1-y)ethoxy)ethyl)pyridin-3-yl)-1-(tetrahydro-2H-pyran-4-yl)-1H-imidazo[4,5-c]cinnolin-2(3H)-one]",16
22,"C[C@@H](OCCN1CCC(OC(F)(F)F)CC1)c1ccc(-c2ccc3nnc4c(c3c2)n(C2CCOCC2)c(=O)n4C)cn1 [Example 109, (R)-3-methyl-1-(tetrahydro-2H-pyran-4-yl)-8-(6-(1-(2-(4-(trifluoromethoxy)piperidin-1-yl)ethoxy)ethyl)pyridin-3-yl)-1H-imidazo[4,5-c]cinnolin-2(3H)-one]",2.1
